Reference: patent US11389415B2, “Methods of regulating cannabinoid receptor activity-related disorders and diseases” (The United States of America as represented by the …, priority 2012, dated 2022)

Key:
[1] = system: HepG2 cells; assay: [3H]-Thymidine incorporation assay in HepG2 cells; assay type: cell-based, human; conditions: 1 μM, 24 h
Method in brief: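 HepG2 and U87MG cells (~50,000/well) were treated 24 hours at 37° C with test compounds in serum-free medium, then labelled 16 hours with 1 μCi [3H]-thymidine. Cells were lysed in 0.1N NaOH and incorporation measured by scintillation counting, expressed as CPM relative to control cells.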

[2] = Dose escalation and 7-day repeat dose range finding study in Sprague-Dawley rats; assay type: in vivo, rat; conditions: for Gross Necropsy Observation: interim (Day 8) and terminal (Day 14), red: thymus, mandibular lymph node, black or necrosis: tail
Description: A single dose escalation study was performed to select dose levels for 7-day repeat dose study with IV administration in Sprague-Dawley rats. Dose levels were 0, 5, 10 and 25 mg/kg.

[3] = system: rat C6 glioma cells; assay: 3H-Thymidine incorporation in rat C6 glioma cells; assay type: cell-based; conditions: 24 hours
Description: Cell culture. The rat-derived C6 glioma cell line was obtained from the American Type Culture Collection (Manassas, Va.). The cells were routinely maintained in DMEM supplemented with L-glutamine, 1% penicillin/streptomycin solution, and 10% FBS in a humidified CO2 incubator at 37° C.
3H-Thymidine incorporation. C6 glioma cells were seeded in 12-well plates at ˜5×10^4 cells/well and incubated for 24 hours followed by a second 24-hour incubation with various concentrations of MNF. Radiolabeled thymidine (10 Ci/mmol; PerkinElmer Life and Analytical Sciences, Waltham, Mass.) was added at 1 μCi per well for 16 hours and its incorporation into DNA was then measured. Each treatment group was performed in triplicate and three independent studies were carried out.

[4] = system: cyclin A and cyclin D1; assay: Western blot of cell cycle regulator proteins (cyclin A, cyclin D1), C6 glioma; parameters: species or system mouse; conditions: C6 glioma in vivo and in vitro
From the text: Western Blot Analysis. Frozen tumor tissues were lysed with radioimmune precipitation buffer containing EGTA and EDTA (Boston BioProducts, Ashland, Mass.) supplemented with a phosphatase inhibitor cocktail (EMB-Calbiochem), and protease inhibitor cocktail (Sigma-Aldrich), according to standard protocols. Equal amounts of protein from the clarified lysates were separated by SDS-polyacrylamide gel electrophoresis under reducing conditions (Invitrogen, Carlsbad, Calif.), and electrotransferred onto polyvinylidene difluoride membranes using the iBlot system (Invitrogen). Western blots were performed according to standard methods, which involved blocking the membrane in 5% non-fat milk, followed by sequential incubation method with the primary antibody of interest and secondary antibody conjugated with the enzyme horseradish peroxidase. The detection of immunoreactive bands was performed by chemiluminescence using the ECL Plus Western Blotting Detection System (GE Healthcare, Piscataway, N.J.). Quantitation of the protein bands was done by volume densitometry using ImageJ software (National Institutes of Health, Bethesda, Md.). […]

[5] = system: HepG2 and PANC-1 cells; assay: Cell morphology and EGFR expression in HepG2 and PANC-1 cells; assay type: cell-based, human
Description: FIGS. 26A-26C show MNF interferes with inducible changes in cell morphology and expression of EGFR. […] White arrows show individual cells with filopodia. FIG. 26C, Cell lysates were prepared from similar studies and immunoblotted for EGFR. The membranes were reprobed for Hsp90, which served as a loading control.
Western blot analysis. For detection of intracellular signaling proteins, cells were lysed in radioimmunoprecipitation buffer containing EGTA and EDTA (Boston BioProducts, Ashland, Mass.). The lysis buffer contained a protease inhibitor cocktail (Sigma-Aldrich) and phosphatase inhibitor cocktail (Calbiochem, San Diego, Calif.). Equivalent amount of proteins (14 and 54 μg/well for PANC-1 and HepG2 cells, respectively) were separated on 4 to 12% precast gels (Invitrogen, Carlsbad, Calif.) using SDS-polyacrylamide gel electrophoresis under reducing conditions and then electrophoretically transferred onto polyvinylidene fluoride membrane (Invitrogen). Western blots were performed according to standard methods, which involved blocking in 5% non-fat milk and incubated with the antibody of interest, followed by incubation with a secondary antibody conjugated with the enzyme horseradish perodixase. The detection of immunoreactive bands was performed by chemiluminescence using the ECL Plus Western Blotting Detection System (GE Healthcare, Piscataway, N.J.). The quantification of bands was done by volume densitometry by using ImageJ software. The rabbit polyclonal antibodies against EGFR were obtained from Cell Signaling Technology, Inc. (Beverly, Mass.) and the monoclonal anti-Hsp90 was purchased from Santa Cruz Biotechnology, Inc. (Santa Cruz, Calif.).

[6] = target: GPR55 (Homo sapiens, UniProt Q9Y2T6); assay: Cellular uptake of TocriFluor T1117 in PANC-1 cells; conditions: MNF 1 μM
Chain of GPR55 (Q9Y2T6 whole entry): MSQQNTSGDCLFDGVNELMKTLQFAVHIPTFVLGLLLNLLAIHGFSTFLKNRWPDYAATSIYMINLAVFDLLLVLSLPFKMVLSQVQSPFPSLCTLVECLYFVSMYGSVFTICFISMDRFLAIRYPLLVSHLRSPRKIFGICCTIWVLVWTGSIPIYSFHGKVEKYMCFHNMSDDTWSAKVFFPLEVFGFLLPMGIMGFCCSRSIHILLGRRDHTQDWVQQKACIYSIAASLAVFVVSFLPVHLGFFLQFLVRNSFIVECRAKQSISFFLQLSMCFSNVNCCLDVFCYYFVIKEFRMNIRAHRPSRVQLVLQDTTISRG
Description: Cellular uptake of TocriFluor T1117, a fluorescently labeled GPR55 agonist Cells were grown in 35-mm glass bottom culture dishes (MatTek Corp., Ashland, Mass., USA) for 48 hours until reaching ˜70% confluence. […] Cells were imaged with a Zeiss LSM 710 confocal microscope equipped with a temperature-controlled and humidified CO2 chamber and a definite focus system. […] The time-series function of the Zeiss Zen software was used to collect images with a 40×1.3 NA objective every 30 s for up to one hour, with all confocal settings remaining the same throughout the studies. Still images, movies and fluorescent intensity quantitation were obtained from these series using the Zeiss Zen software. Studies were repeated at least two to three times.

SMILES: COc1ccc(C[C@@H](C)NC[C@H](O)c2cc(O)cc(O)c2)c2ccccc12 [(R,R′)-MNF, (R,R′)-4′-methoxy-1-naphthylfenoterol]
- % Change in HepG2 cells ([3H]-thymidine incorporation) [1]: −59.4%
- Body Weight ([2]; Sprague Dawley rats, iv, 0, 5, 10, or 25 mg/kg/day, 7-day): comparable
- Clinical Pathology: increases in WBC, % Neut., % RET/REA, and PLC ([2]; high-dose males and females, Day 8 and Day 14): Increases: ~2-fold
- Gross Necropsy Observation ([2]; black discoloration or necrosis, tail): Discolored black
- Gross Necropsy Observation ([2]; red discoloration, thymus and lymph node): Discolored red:
- toxic effects ([2]; single dose escalation, IV, 0, 5, 10 and 25 mg/kg, Sprague-Dawley rats): Toxic effects were minimal
- inhibition of C6 cell growth / reduction in mitogenesis ([3]; 20 nM): 54.3±1.2%
- IC50 ([3]; then [3H]-thymidine 16 hours, read-out: IC50, growth inhibition of rat C6 glioma cell line): ~1 nM
- expression of cell cycle regulator proteins [4]: marked reduction in the expression of cell cycle regulator proteins
- effect on O-1602-induced EGFR levels ([5]; 1 μM pretreatment): MNF blocked this effect
- effect on change in morphology induced by AM251 and O-1602 ([5]; 1 μM pretreatment 30 minutes, agonists 5 μM 16 hours): rendered the cells refractory to the change in morphology induced by AM251 and O-1602
- T1117 incorporation [6]: potent inhibitor of T1117 incorporation in PANC-1 cells
